Values quoted from earlier work, collected in patent publication US20050277634A1, “Liquid composition for veterinary medicine and process for the preparation and use thereof” (Boehringer Ingelheim Vetmedica GmbH, priority 2004, published 2005).

Conditions: injectable solution, subcutaneous administration

- Bioavailability: fully bioavailable
- Time to maximum plasma concentrations: after a few hours
Compound: Cc1cnc(NC(=O)C2=C(O)c3ccccc3S(=O)(=O)N2C)s1 [meloxicam]
